This passage reports EC30 results from patent US10758534B2 (Vertex Pharmaceuticals Incorporated, priority 2014, dated 2020).

For orientation: EC30 means the concentration needed for an effect of 30%.

T1 sequence (P13569 with tags, fused parts or gaps DEL508-508): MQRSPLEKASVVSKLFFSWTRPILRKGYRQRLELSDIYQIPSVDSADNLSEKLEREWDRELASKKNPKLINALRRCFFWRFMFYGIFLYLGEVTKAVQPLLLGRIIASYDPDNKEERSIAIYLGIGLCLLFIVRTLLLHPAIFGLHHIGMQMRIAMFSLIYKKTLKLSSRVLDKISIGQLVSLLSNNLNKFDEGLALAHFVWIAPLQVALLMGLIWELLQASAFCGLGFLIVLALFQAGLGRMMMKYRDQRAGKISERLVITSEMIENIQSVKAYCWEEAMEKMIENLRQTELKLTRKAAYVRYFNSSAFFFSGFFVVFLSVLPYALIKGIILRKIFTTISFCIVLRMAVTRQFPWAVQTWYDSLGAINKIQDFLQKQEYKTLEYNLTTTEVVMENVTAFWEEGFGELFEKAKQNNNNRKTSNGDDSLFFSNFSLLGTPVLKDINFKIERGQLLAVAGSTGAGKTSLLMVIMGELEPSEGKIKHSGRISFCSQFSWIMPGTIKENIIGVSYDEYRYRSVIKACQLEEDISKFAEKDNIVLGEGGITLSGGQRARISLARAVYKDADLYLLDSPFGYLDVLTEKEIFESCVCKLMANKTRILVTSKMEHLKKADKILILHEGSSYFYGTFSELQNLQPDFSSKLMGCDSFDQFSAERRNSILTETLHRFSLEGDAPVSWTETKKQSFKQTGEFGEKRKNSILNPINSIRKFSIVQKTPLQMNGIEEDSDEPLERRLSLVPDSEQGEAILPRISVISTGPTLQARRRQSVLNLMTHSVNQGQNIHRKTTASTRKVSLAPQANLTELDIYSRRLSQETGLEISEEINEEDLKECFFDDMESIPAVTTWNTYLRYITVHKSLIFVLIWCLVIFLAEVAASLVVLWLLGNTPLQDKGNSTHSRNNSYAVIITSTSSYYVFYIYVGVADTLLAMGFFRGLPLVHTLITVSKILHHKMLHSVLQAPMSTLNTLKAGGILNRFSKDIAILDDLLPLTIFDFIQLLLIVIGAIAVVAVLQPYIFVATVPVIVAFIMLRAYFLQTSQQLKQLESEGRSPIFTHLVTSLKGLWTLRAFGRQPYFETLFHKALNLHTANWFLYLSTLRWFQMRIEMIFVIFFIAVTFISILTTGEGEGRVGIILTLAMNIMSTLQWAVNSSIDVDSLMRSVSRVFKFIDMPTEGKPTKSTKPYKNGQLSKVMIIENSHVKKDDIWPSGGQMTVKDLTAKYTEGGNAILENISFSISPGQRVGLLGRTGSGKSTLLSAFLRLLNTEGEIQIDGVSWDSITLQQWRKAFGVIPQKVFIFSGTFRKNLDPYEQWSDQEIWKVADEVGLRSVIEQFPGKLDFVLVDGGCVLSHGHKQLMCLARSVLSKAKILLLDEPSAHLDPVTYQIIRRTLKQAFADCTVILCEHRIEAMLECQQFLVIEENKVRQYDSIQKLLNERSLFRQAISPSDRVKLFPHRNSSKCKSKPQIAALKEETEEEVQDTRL

The first assay addresses T1, F508del (Homo sapiens, UniProt P13569, DEL508-508).
T1 construct: expressed in transfected cells
Briefly: Protocol 2: FRET membrane potential optical assay (VIPR), identification of correction compounds. Type of assay: cell-based. The settings on record: F508del CFTR modulator activity; compounds of Table 1; read-out: EC30. The method, boiled down:
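Corrector readout: membrane-potential FRET (CC2-DMPE donor, DiSBAC2(3) acceptor) on VIPR II after Cl⁻-free gluconate bath with 10 μM forskolin and 20 μM genistein. Before this, F508del-expressing NIH3T3 cells were exposed to test compound for 16 h at 37 °C without serum; 27 °C incubation served as temperature-correction control.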
For `CC1CN(c2ncccc2C(=O)NS(=O)(=O)c2cccc(OCCN)n2)C(C)(C)C1` (centres unmarked) [Compound 2742], the EC30 is 3000 to 10000 nM.

With `CC(Oc1ncccc1C(=O)NS(=O)(=O)c1cccc(N)n1)c1ccccc1C(F)(F)F` (centres unmarked) [Compound 2501], the EC30 fell in the range of 3000 to 10000 nM.

Consider `COc1ccc(CNc2cccc(S(=O)(=O)NC(=O)c3ccc(C(C)(C)C)nc3N3CC(C)CC3(C)C)n2)cc1` (centres unmarked) [Compound 2712], for which the concentration for an effect of 30% (EC30) is below 3000 nM.

As for `Cc1cccc(-c2ccc(C(=O)NS(=O)(=O)c3cccnc3N)c(N3C[C@@H](C)CC3(C)C)n2)c1O` [Compound 2592, N-[(2-amino-3-pyridyl)sulfonyl]-6-(2-hydroxy-3-methyl-phenyl)-2-[(4S)-2,2,4-trimethylpyrrolidin-1-yl]pyridine-3-carboxamide], the EC30 is below 3000 nM.

As to `C[C@@H]1CN(c2nc(-c3cccc(F)c3O)ccc2C(=O)NS(=O)(=O)c2cccc(N)n2)C(C)(C)C1` [Compound 2386, N-[(6-amino-2-pyridyl)sulfonyl]-6-(3-fluoro-2-hydroxy-phenyl)-2-[(4S)-2,2,4-trimethylpyrrolidin-1-yl]pyridine-3-carboxamide], the EC30 is below 3000 nM.

Take `CC(C)Oc1cccc(-c2ccc(C(=O)NS(=O)(=O)c3ccc[nH]c3=O)c(N3C[C@@H](C)CC3(C)C)n2)c1` [Compound 2549, 6-(3-isopropoxyphenyl)-N-[(2-oxo-1H-pyridin-3-yl)sulfonyl]-2-[(4S)-2,2,4-trimethylpyrrolidin-1-yl]pyridine-3-carboxamide]: the EC30 was below 3000 nM.

For `CC1CN(c2ncccc2C(=O)NS(=O)(=O)c2cccc(OCC3CC=CCC3C)n2)C(C)(C)C1` (centres unmarked) [Compound 2001, N—[[6-[(6-methylcyclohex-3-en-1-yl)methoxy]-2-pyridyl]sulfonyl]-2-(2,2,4-trimethylpyrrolidin-1-yl)pyridine-3-carboxamide], the EC30 was below 3000 nM.

Consider `CCOCCOc1ncc(-c2ccc(C(=O)NS(=O)(=O)c3cccc(N)n3)c(N3C[C@@H](C)CC3(C)C)n2)cc1C` [Compound 2404, N-[(6-amino-2-pyridyl)sulfonyl]-6-[6-(2-ethoxyethoxy)-5-methyl-3-pyridyl]-2-[(4S)-2,2,4-trimethylpyrrolidin-1-yl]pyridine-3-carboxamide], for which the 30% effect concentration (EC30) was below 3000 nM.

Staying with this assay, now noted: Table 3; compounds of Table 1 as modulators of CFTR activity; protocol not stated.
In the case of `Cc1cc(C)c(CN2C(C(=O)NS(=O)(=O)c3ccc(C)c(N)c3)c3ccccc3C2(C)C)c(C)c1` (centres unmarked) [Compound 448, N-(3-amino-4-methyl-phenyl)sulfonyl-3,3-dimethyl-2-[(2,4,6-trimethylphenyl)methyl]isoindoline-1-carboxamide], the 30% effect concentration (EC30) entry is given as “+++ (“+++” means <3 uM)”.

In the case of `CC(C)COc1cc(F)cc(-c2ccc(C(=O)NS(=O)(=O)c3ccccc3)c(N3CCC(C)(C)CC3)n2)c1` [Compound 583, N-(benzenesulfonyl)-2-(4,4-dimethyl-1-piperidyl)-6-(3-fluoro-5-isobutoxy-phenyl)pyridine-3-carboxamide], the 30% effect concentration (EC30) entry is “+++ (“+++” means <3 uM)”.

Take `Cc1cc(C)c(Cn2nc(C(C)(C)C)cc2C(=O)NS(=O)(=O)c2cccc(N)n2)c(C)c1` [Compound 173, N-[(6-amino-2-pyridyl)sulfonyl]-5-tert-butyl-2-[(2,4,6-trimethylphenyl)methyl]pyrazole-3-carboxamide]: the EC30 result is “++ (“++” means between 3 uM and 10 uM)”.

On to `Cc1cc(C)c(Oc2nc(-c3ccncc3F)ccc2C(=O)NS(=O)(=O)c2cccc(N)n2)c(C)c1` [Compound 514, N-[(6-amino-2-pyridyl)sulfonyl]-6-(3-fluoro-4-pyridyl)-2-(2,4,6-trimethylphenoxy)pyridine-3-carboxamide], for which the EC30 result is “+ (“+” means greater than 10 uM)”.

Consider `Cc1cc(C)c(Oc2nc(C(C)(C)C)ccc2C(=O)NS(=O)(=O)c2ccccc2N)c(C)c1` [Compound 322, N-(2-aminophenyl)sulfonyl-6-tert-butyl-2-(2,4,6-trimethylphenoxy)pyridine-3-carboxamide], for which the EC30 entry was “+++ (“+++” means <3 uM)”.

As for `Cc1cc(C)c(Oc2nc(C(C)(C)C)ccc2C(=O)NS(=N)(=O)c2cccc(N)c2)c(C)c1` (centres unmarked) [Compound 292, N-[(3-Aminophenyl)sulfonimidoyl]-6-tert-butyl-2-(2,4,6-trimethylphenoxy)pyridine-3-carboxamide], the EC30 entry was “+++ (“+++” means <3 uM)”.

With `CC(C)(C)c1ccc(C(=O)NS(=O)(=O)c2ccccc2)c(OCc2ccccc2)n1` [Compound 130, N-(benzenesulfonyl)-2-benzyloxy-6-tert-butyl-pyridine-3-carboxamide], the 30% effect concentration (EC30) entry is on record as “+++ (“+++” means <3 uM)”.

With `Cc1cc(C)c(Oc2nc(-c3cc(F)cc(OCC(C)C)c3)ccc2C(=O)NS(=O)(=O)c2cc[nH]n2)c(C)c1` [Compound 318, 6-(3-fluoro-5-isobutoxy-phenyl)-N-(1H-pyrazol-3-ylsulfonyl)-2-(2,4,6-trimethylphenoxy)pyridine-3-carboxamide], the EC30 result is “+++ (“+++” means <3 uM)”.

As to `Cc1cccc(C)c1Cn1nc(C(C)(C)C)cc1C(=O)NS(=O)(=O)c1ccc(F)c(N)c1` [Compound 150, N-(3-amino-4-fluoro-phenyl)sulfonyl-5-tert-butyl-2-[(2,6-dimethylphenyl)methyl]pyrazole-3-carboxamide], the concentration for an effect of 30% (EC30) entry was “+++ (“+++” means <3 uM)”.

In the case of `CC1CCN(c2nc3c(cc2C(=O)NS(=O)(=O)c2cccc(N)n2)CCCC3(C)C)CC1` [Compound 750, N-[(6-amino-2-pyridyl)sulfonyl]-8,8-dimethyl-2-(4-methyl-1-piperidyl)-6,7-dihydro-5H-quinoline-3-carboxamide], the EC30 result was “+++ (“+++” means <3 uM)”.

Regarding `Cc1cc(C)c(Oc2nc(C(C)(C)C)ccc2C(=O)NS(=O)(=O)c2ccc(N)cc2)c(C)c1` [Compound 11, N-(4-aminophenyl)sulfonyl-6-tert-butyl-2-(2,4,6-trimethylphenoxy)pyridine-3-carboxamide], the concentration for an effect of 30% (EC30) result is listed as “+++ (“+++” means <3 uM)”.

For `COCc1ccc(-c2ccc(C(=O)NS(=O)(=O)c3cccc(N)n3)c(Oc3c(C)cc(C)cc3C)n2)cc1` [Compound 66, N-[(6-amino-2-pyridyl)sulfonyl]-6-[4-(methoxymethyl)phenyl]-2-(2,4,6-trimethylphenoxy)pyridine-3-carboxamide], the EC30 entry is listed as “+++ (“+++” means <3 uM)”.

With `Cc1cc(C)c(Oc2nc(C(C)(C)C)ccc2C(=O)NS(=O)(=O)c2cn[nH]c2)c(C)c1` [Compound 401, 6-tert-butyl-N-(1H-pyrazol-4-ylsulfonyl)-2-(2,4,6-trimethylphenoxy)pyridine-3-carboxamide], the EC30 result was “+++ (“+++” means <3 uM)”.

In the case of `COc1ccc(-c2ccc(C(=O)NS(=O)(=O)c3cccc(N)n3)c(Oc3c(C)cc(C)cc3C)n2)cn1` [Compound 531, N-[(6-amino-2-pyridyl)sulfonyl]-6-(6-methoxy-3-pyridyl)-2-(2,4,6-trimethylphenoxy)pyridine-3-carboxamide], the concentration for an effect of 30% (EC30) result is recorded as “+++ (“+++” means <3 uM)”.

On to `Cc1cc(C)c(Cn2c(C(=O)NS(=O)(=O)c3cccc(N)c3)cc3cc(C)ccc32)c(C)c1` [Compound 259, N-(3-aminophenyl)sulfonyl-5-methyl-1-[(2,4,6-trimethylphenyl)methyl]indole-2-carboxamide], for which the EC30 result is “+++ (“+++” means <3 uM)”.
